In ChEMBL document CHEMBL5053551, “Structure-Based Design of Dual Partial Peroxisome Proliferator-Activated Receptor γ Agonists/Soluble Epoxide Hydrolase Inhibitors” (J Med Chem, 2021):
pEC50, pIC50: −log10 of the molar value. Activity calls are given as the source filed them. The rule behind the calls is not given here.

How the values were obtained:
[1] = target: T1, Bifunctional epoxide hydrolase 2 (Homo sapiens, UniProt P34913); assay: Inhibition of recombinant human full length sEH assessed as reduction in 6-methoxy-2-naphthaldehyde formation using PHOME as substrate preincubated for 30 to 45 mins followed by substrate addition and measured after 30 to 45 mins by fluorescence assay
T1 sequence (P34913 whole entry): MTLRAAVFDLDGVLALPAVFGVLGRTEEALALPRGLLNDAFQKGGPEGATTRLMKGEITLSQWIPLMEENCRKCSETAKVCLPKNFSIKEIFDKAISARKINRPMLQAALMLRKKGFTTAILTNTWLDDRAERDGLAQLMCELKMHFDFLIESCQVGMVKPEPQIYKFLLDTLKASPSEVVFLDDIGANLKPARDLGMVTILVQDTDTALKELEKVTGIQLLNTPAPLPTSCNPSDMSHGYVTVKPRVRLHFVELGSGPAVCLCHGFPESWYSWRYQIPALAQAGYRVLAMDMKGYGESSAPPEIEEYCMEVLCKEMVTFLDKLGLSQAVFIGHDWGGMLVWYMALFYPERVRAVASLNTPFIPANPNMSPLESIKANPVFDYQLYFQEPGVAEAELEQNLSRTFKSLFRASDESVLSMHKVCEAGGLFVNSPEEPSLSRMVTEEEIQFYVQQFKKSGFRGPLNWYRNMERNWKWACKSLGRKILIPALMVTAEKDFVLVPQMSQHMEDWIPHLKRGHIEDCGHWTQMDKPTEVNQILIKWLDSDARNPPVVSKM

[2] = target: T2, Peroxisome proliferator-activated receptor gamma (Homo sapiens, UniProt P37231); assay: Partial agonist activity at GAL4-tagged human PPARgamma LBD expressed in HEK293T cells incubated for 12 to 14 hrs by dual-Glo luciferase assay; type: cell-based
T2 sequence (P37231 whole entry): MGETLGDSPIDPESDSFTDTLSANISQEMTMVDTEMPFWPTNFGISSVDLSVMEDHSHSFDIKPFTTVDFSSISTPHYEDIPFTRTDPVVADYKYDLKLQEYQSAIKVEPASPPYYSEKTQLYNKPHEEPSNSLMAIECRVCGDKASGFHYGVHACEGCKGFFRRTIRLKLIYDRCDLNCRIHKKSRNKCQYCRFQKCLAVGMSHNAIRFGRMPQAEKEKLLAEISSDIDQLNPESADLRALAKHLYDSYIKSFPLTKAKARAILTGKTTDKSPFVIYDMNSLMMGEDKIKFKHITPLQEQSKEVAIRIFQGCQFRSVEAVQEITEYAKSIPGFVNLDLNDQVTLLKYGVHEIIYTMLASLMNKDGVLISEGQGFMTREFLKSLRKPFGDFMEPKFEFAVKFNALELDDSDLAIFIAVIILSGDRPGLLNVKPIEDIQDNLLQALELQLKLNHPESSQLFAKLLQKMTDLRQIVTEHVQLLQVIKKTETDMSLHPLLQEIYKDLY

[3] = target: T3, Peroxisome proliferator-activated receptor gamma (Homo sapiens) (UniProt P37231); assay: Partial agonist activity at GAL4-tagged human PPARgamma LBD expressed in HEK293T cells at 10 uM incubated for 12 to 14 hrs by dual-Glo luciferase assay; type: cell-based; details: time 12-14 hrs
T3 sequence (whole entry): T2 sequence (P37231 whole entry)

[4] = Stability of compound in Sprague-Dawley rat liver microsomes assessed as half life at 10 uM preincubated for 5 mins in presence of NADPH regenerating system followed by microsomal addition and measured upto 60 mins by HPLC analysis; type: ADME, Microsome; details: time 65 min
[5] = Stability of compound in human liver microsomes assessed as half life at 10 uM preincubated for 5 mins in presence of NADPH regenerating system followed by microsomal addition and measured upto 60 mins by HPLC analysis; type: ADME, Microsome; details: time 65 min
[6] = Stability of compound in BALB/c mouse liver microsomes assessed as half life at 10 uM preincubated for 5 mins in presence of NADPH regenerating system followed by microsomal addition and measured upto 60 mins by HPLC analysis; type: ADME, Microsome; details: time 65 min

Compound | pIC50 [1] | pEC50 [2] | also measured
O=C(NCc1ccccc1C(F)(F)F)c1ccc2c(c1)[nH]c(=O)n2Cc1ccccn1 | 6.34 |  | Activity [3]: inactive
O=C(NCc1ccccc1C(F)(F)F)c1ccc2c(c1)[nH]c(=O)n2Cc1cccc(F)c1 | 6.82 | 6.92 | 
COc1ccc(CNC(=O)c2ccc3c(ccn3Cc3cccc(F)c3)c2)c(C(F)(F)F)c1 | 6.51 | 6.07 | 
O=C(NCc1ccccc1C(F)(F)F)c1ccc2c(c1)[nH]c(=O)n2Cc1ccc(Cl)cc1 | 6.71 |  | Activity [3]: inactive
COc1ccccc1Cn1c(=O)[nH]c2cc(C(=O)NCc3ccccc3C(F)(F)F)ccc21 | 6.50 |  | Activity [3]: inactive
O=C(NCc1ccc(NS(=O)(=O)C2CC2)cc1C(F)(F)F)c1ccc2[nH]ccc2c1 | 7.54 | 5.83 | 
O=C(NCc1ccccc1C(F)(F)F)c1ccc2c(ccn2Cc2cccc(F)c2)c1 | 6.49 |  | 
O=C(NCc1ccccc1C(F)(F)F)c1ccc2c(c1)[nH]c(=O)n2Cc1ccc(F)cc1 | 6.85 |  | Activity [3]: inactive
O=C(NCc1ccccc1C(F)(F)F)c1ccc2c(c1)ncn2Cc1cccc(F)c1 | 6.97 |  | 
O=C(NCc1ccccc1C(F)(F)F)c1ccc2c(c1)[nH]c(=O)n2Cc1ccccc1F | 7.26 |  | Activity [3]: inactive
O=C(NCc1ccccc1C(F)(F)F)c1ccc2c(c1)[nH]c(=O)n2Cc1ccccc1 | 7.09 |  | 
O=C(NCc1ccccc1C(F)(F)F)c1ccc2c(c1)[nH]c(=O)n2Cc1cccc(Cl)c1 | 7.06 |  | 
COc1ccc(CNC(=O)c2ccc3c(c2)[nH]c(=O)n3Cc2cccc(F)c2)c(C(F)(F)F)c1 | 7.54 |  | 
O=C(NCc1ccccc1C(F)(F)F)c1ccc2c(cnn2Cc2cccc(F)c2)c1 | 7.44 | 5.80 | 
O=C(NCc1ccccc1C(F)(F)F)c1ccc2c(c1)[nH]c(=O)n2CC1CCCCC1 | 6.49 |  | 
O=C(NCc1ccccc1C(F)(F)F)c1ccc2c(c1)[nH]c(=O)n2Cc1ccc(Cl)c(Cl)c1 | 5.96 |  | 
O=C(NCc1ccccc1C(F)(F)F)c1ccc2c(c1)[nH]c(=O)n2Cc1ccc(Cl)cc1Cl | 7.00 |  | Activity [3]: inactive
O=C(NCc1ccccc1C(F)(F)F)c1ccc2c(c1)[nH]c(=O)n2Cc1ccccc1Cl | 6.77 |  | 
CN(C)CCn1ccc2cc(C(=O)NCc3ccc(NS(=O)(=O)C4CC4)cc3C(F)(F)F)ccc21 | 7.55 |  | Activity [3]: inactive
O=C(NCc1ccccc1C(F)(F)F)c1ccc2c(c1)[nH]c(=O)n2Cc1ccccc1C(F)(F)F | 6.52 |  | 
COc1ccc(CNC(=O)c2ccc3c(c2)ncn3Cc2cccc(F)c2)c(C(F)(F)F)c1 | 7.40 |  | 
O=C(NCc1ccccc1C(F)(F)F)c1ccc2c(c1)[nH]c(=O)n2Cc1cc(F)cc(F)c1 | 7.32 |  | 

Further compounds by rising pIC50 [1], results first:

pIC50 [1] | pEC50 [2] | Compound | also measured
7.55 |  | COc1ccc(CNC(=O)c2ccc3c(c2)[nH]c(=O)n3Cc2ccccc2)c(C(F)(F)F)c1 | 
7.66 | 5.80 | COc1ccc(CNC(=O)c2ccc3c(cnn3Cc3cccc(F)c3)c2)c(C(F)(F)F)c1 | 
8.15 |  | Nc1ccc(CNC(=O)c2ccc3c(ccn3Cc3cccc(F)c3)c2)c(C(F)(F)F)c1 | 
8.22 | 5.84 | CSCc1ccc(CNC(=O)c2ccc3c(ccn3Cc3cccc(F)c3)c2)c(C(F)(F)F)c1 | 
8.22 | 5.87 | CS(=O)(=O)Cc1ccc(CNC(=O)c2ccc3c(ccn3Cc3cccc(F)c3)c2)c(C(F)(F)F)c1 | 
8.30 | 6.31 | CC(C)n1ccc2cc(C(=O)NCc3ccc(NS(=O)(=O)C4CC4)cc3C(F)(F)F)ccc21 | 
8.30 |  | O=C(NCc1ccc(NC(=O)C(F)(F)F)cc1C(F)(F)F)c1ccc2c(ccn2Cc2cccc(F)c2)c1 | 
8.52 | 6.43 | CCS(=O)(=O)Nc1ccc(CNC(=O)c2ccc3c(ccn3Cc3cccc(F)c3)c2)c(C(F)(F)F)c1 | 
8.70 | 5.98 | CC(C)S(=O)(=O)n1ccc2cc(C(=O)NCc3ccc(NS(=O)(=O)C4CC4)cc3C(F)(F)F)ccc21 | 
8.70 |  | CC(C)Cn1ccc2cc(C(=O)NCc3ccc(NS(=O)(=O)C4CC4)cc3C(F)(F)F)ccc21 | half-life at 10 µM [4]: 41 min; half-life at 10 µM [5]: 76 min; half-life at 10 µM [6]: 53 min
